In patent publication US8580921B2, “Protein nanorings” (University of Minnesota, priority 2005, dated 2013):

Key:
Daudi cells = conditions: 2 hr incubation; cited from earlier work
[1] = tested on: 39 human tumor cell lines; conditions: cited from earlier work
[2] = humans; cited from earlier work
[3] = given orally to mice; cited from earlier work
[4] = SEC of isolated DHFR^2 oligomers after storage or dilution; assay type: physicochemical; conditions: oligomers with MTX^2-C9 isolated by SEC (dimers, tetramers, octamers), stored 2 weeks at 4° C.
Description: SEC was employed to initially assess the degree of DHFR^2 induced oligomerization by MTX^2. The purified DHFR^2-13 (10 uM) and MTX^2-C9 were mixed at a range of stoichiometries, allowed to equilibrate for one hour, and assayed by size exclusion chromatography on a Superdex G75 Column (Amersham).
Assemblies of this size, however, approach or exceed the exclusion limit of the G75 matrix, preventing definitive assignment of the molecular weight and oligomer number. The dimeric fraction increased at the expense of the larger oligomers with time, becoming the dominant species. […] For DHFR^2-3, tetramers were the dominant species, further increasing with time. […] In addition, in contrast to the expected result from linear oligomers, no observable change in composition was observed when oligomer samples were dilution to a concentration of 5 nM.

Molecule	IC50 (Daudi cells) [nM]	oligomer composition on re-injection after storage [4]	further results
COc1cccc2c1C(=O)c1c(O)c3c(c(O)c1C2=O)C[C@@](O)(C(=O)CO)C[C@@H]3O[C@H]1C[C@H](N)[C@H](O)[C@H](C)O1 [doxorubicin]	225 ± 35		
auristatin	4.6 ± 4.3		IC50 [1]: 3.2 ± 0.51 nM
COc1cc(Cc2cnc(N)nc2N)cc(OC)c1OC [trimethoprim]			half-life [2]: 11 h; LD50 [3]: greater than 3 grams/kg
DHFR^2-13: two wild-type E. coli DHFR modules separated by a 13 (GLG5LVPRGT) amino acid linker (protein, left off: small tags and cut ends) MISLIAALAVDRVIGMENAMPWNLPADLAWFKRNTLNKPVIMGRHTWESIGRPLPGRKNIILSSQPGTDDRVTWVKSVDEAIAACGDVPEIMVIGGGRVYEQFLPKAQKLYLTHIDAEVEGDTHFPDYEPDDWESVFSEFHDADAQNSHSYCFEILERRGLGGGGGLVPRGTMISLIAALAVDRVIGMENAMPWNLPADLAWFKRNTLNKPVIMGRHTWESIGRPLPGRKNIILSSQPGTDDRVTWVKSVDEAIAACGDVPEIMVIGGGRVYEQFLPKAQKLYLTHIDAEVEGDTHFPDYEPDDWESVFSEFHDADAQNSHSYCFEILERR		no change in the oligomer composition	
DHFR^2-3: E. coli DHFR-DHFR fusion protein with 3 amino acid linker (GGT) (protein, left off: small tags and cut ends) MISLIAALAVDRVIGMENAMPWNLPADLAWFKRNTLNKPVIMGRHTWESIGRPLPGRKNIILSSQPGTDDRVTWVKSVDEAIAACGDVPEIMVIGGGRVYEQFLPKAQKLYLTHIDAEVEGDTHFPDYEPDDWESVFSEFHDADAQNSHSYCFEILERRGGTMISLIAALAVDRVIGMENAMPWNLPADLAWFKRNTLNKPVIMGRHTWESIGRPLPGRKNIILSSQPGTDDRVTWVKSVDEAIAACGDVPEIMVIGGGRVYEQFLPKAQKLYLTHIDAEVEGDTHFPDYEPDDWESVFSEFHDADAQNSHSYCFEILERR		no change in the oligomer composition	
DHFR^2-1G: E. coli DHFR-DHFR fusion protein with 1 (G) amino acid linker (protein, left off: small tags and cut ends, E. coli DHFR-DHFR fusion protein with 1 (G) amino acid linker) MISLIAALAVDRVIGMENAMPWNLPADLAWFKRNTLNKPVIMGRHTWESIGRPLPGRKNIILSSQPGTDDRVTWVKSVDEAIAACGDVPEIMVIGGGRVYEQFLPKAQKLYLTHIDAEVEGDTHFPDYEPDDWESVFSEFHDADAQNSHSYCFEILERRGMISLIAALAVDRVIGMENAMPWNLPADLAWFKRNTLNKPVIMGRHTWESIGRPLPGRKNIILSSQPGTDDRVTWVKSVDEAIAACGDVPEIMVIGGGRVYEQFLPKAQKLYLTHIDAEVEGDTHFPDYEPDDWESVFSEFHDADAQNSHSYCFEILERR		no change in the oligomer composition	
